Data on two molecules can be found in patent US6103720A, “Ketobenzamides as calpain inhibitors” (BASF Aktiengesellschaft, priority 1996, dated 2000).

Some results are limits rather than exact numbers.

One test concerns the target T1, Human μ-calpain (Homo sapiens, UniProt P07384).
T1 construct: Human μ-calpain is isolated from erythrocytes; from tissue; host or cells: human erythrocytes (purified on DEAE Sepharose, phenyl Sepharose, Superdex 200 and Blue Sepharose)
T1 sequence (P07384 1-714): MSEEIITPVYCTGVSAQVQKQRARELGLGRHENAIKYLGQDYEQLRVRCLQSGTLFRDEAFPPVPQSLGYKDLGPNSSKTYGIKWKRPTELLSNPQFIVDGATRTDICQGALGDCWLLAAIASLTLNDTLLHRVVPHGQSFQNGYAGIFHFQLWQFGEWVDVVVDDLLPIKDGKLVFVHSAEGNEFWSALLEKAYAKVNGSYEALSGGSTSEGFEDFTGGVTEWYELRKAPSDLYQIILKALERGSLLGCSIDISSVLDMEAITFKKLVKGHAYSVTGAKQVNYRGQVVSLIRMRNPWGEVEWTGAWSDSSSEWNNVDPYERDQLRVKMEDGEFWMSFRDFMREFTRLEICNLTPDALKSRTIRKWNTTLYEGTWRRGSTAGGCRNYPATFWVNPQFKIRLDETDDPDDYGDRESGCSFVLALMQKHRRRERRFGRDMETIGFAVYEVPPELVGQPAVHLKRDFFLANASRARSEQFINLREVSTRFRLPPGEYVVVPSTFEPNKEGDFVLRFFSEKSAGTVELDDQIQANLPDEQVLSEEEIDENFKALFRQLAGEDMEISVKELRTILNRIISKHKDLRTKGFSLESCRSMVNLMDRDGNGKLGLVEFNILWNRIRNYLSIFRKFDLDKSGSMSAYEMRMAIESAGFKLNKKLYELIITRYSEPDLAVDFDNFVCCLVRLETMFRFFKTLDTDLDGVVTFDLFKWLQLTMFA
T1 sequence (P04632 1-268 partner): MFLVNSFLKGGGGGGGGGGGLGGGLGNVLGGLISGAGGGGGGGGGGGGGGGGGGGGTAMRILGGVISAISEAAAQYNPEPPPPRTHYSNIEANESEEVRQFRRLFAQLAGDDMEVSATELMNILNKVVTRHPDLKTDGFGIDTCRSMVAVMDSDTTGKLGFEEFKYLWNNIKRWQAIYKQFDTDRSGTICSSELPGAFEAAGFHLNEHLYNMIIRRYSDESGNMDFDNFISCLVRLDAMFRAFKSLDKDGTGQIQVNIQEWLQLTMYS
Briefly: Calpain I test (Ki, fluorogenic substrate Suc-Leu-Tyr-AMC). As to conditions: human μ-calpain from erythrocytes, reversible inhibition. The format is biochemical. How it is done: Calpain I and Calpain II Test
The inhibitory properties of calpain inhibitors are tested in buffer containing 50 mM tris-HCl, pH 7.5; 0.1 M NaCl; 1 mM dithiotreithol [sic]: 0.11 mM CaCl2, using the fluorogenic calpain substrate Suc-Leu-Tyr-AMC (25 mM, dissolved in DMSO, Bachem/Switzerland) (Sasaki et al. J. Biol. Chem. 1984, Vol. 259, 12489-12494). Human μ-calpain is isolated from erythrocytes following the methods of Croall and DeMartino (BBA 1984, Vol. 788, 348-355) and Graybill et al. (Bioorg. & Med. Lett. 1995, Vol. 5, 387-392). After several chromatographic steps (DEAE Sepharose, phenyl Sepharose, Superdex 200 and Blue Sepharose), the enzyme is obtained at a purity of […], as assessed by SDS-PAGE, Western blot analysis and N-terminal sequencing. The fluorescence of the cleavage product 7-amino-4-methylcoumarin (AMC) is followed in a Spex-Fluorolog fluorimeter at λex =380 nm and λem =460 nm. […]
In a typical experimental mixture, 10 μl of substrate (250 μm final concentration) and then 10 μl of μ-calpain (2 μg/ml final concentration, ie. 18 nM) are added to a 1 ml cuvette which contains buffer. The calpain-mediated cleavage of the substrate is measured for from 15 to 20 min. […] Ki values are determined using the customary equation for reversible inhibition, ie. […]

The subject of a further test is calpain. Particulars: M. R. Angelastro et al., J. Med. Chem. 1990,33, 11-13; cited from earlier work.

One may read the Ki as the equilibrium dissociation constant of an inhibitor or competing ligand from its target. Higher therefore signals weaker binding. In the case of “(S)-N-(1-Ethoxycarbonyl-1-oxo-3-phenylpropan-2-yl)-2-phenylbenzamide [Example 24]”, the Ki on Human μ-calpain is below 10 µM.

`COC(=O)C(=O)C(Cc1ccccc1)NC(=O)c1ccccc1` (centres unmarked) [Ph-CONH--CH(CH2 Ph)--CO--COOCH3]: the “inhibitor of calpain (in words)” value in the test with calpain was “weak inhibitor”.
